Experimental data as given in publication PMC6010079, “Inhibition of dengue virus replication by novel inhibitors of RNA-dependent RNA polymerase and protease activities” (Journal of Enzyme Inhibition and Medicinal Chemistry, 2017).
Several values for one entry are separate records, joined by “and”; a condition that tells them apart may be missing. Identical values can stand only once. Like-named read-outs stand apart in the source and are kept apart here.

Columns and labels:
[1] = Cell cytotoxicity assay (MTS); format: cell-based; conditions: human, Huh-7 cells, 3 days incubation, read-out: CC50 (half maximal cytotoxicity concentration)
Protocol: The Huh-7 cells were seeded in 96-well and treated with test compound at concentration of 0, 10, 25, 50, 100, 150 and 200 µM. After 3 days incubation, the cell viability was determined by CellTiter 96 AQueous One Solution Cell Proliferation Assay (MTS assay) as previously reported. Briefly, the MTS assay buffer was added to the cultured plate following removal of the culture medium. After 2 h of incubation at 37 °C, the absorbance at 492 nm was measured. The cell viability was calculated from non-linear regression curve fitting using GraphPad Prism7. The zero dose was defined as 100%. Results were obtained from three independent experiments.

DENV-2 NS5 RdRp [2] = molecular target: T1, DENV-2 NS5 RdRp (Dengue virus type 2, UniProt P29990); assay: Cell-based RdRp reporter assay (p(+)RLuc-(–)DV-UTRΔC-FLuc + pcDNA-NS5-Myc in Huh-7 cells); conditions: 3 days treatment
Protocol: (§1) The cell-based experiments were performed as previously described. Briefly, the Huh-7 cells were transfected with 0.5 µg of p(+)RLuc-(–)DV-UTRΔC-FLuc and DENV NS5 expression vector pcDNA-NS5-Myc followed by compound treatment for 3 days. The RLuc and FLuc activities were analysed by Dual-Glo Luciferase Assay System[37]. The enzyme-based fluorescence-based alkaline phosphatase-coupled polymerase assay (FAPA) was performed as previously described. Briefly, the template was amplified from the cDNA of DENV-2 minus strand 3′-UTR and its RNA was synthesised by the T7 Megascript kit[38]. The 100 nM DENV NS5 protein was incubated with 1, 5 or 10 µM test compound, 100 nM (−) 3′-UTR RNA, 20 µM CTP, GTP, UTP and 20 µM BBT-ATP (Jena Bioscience) in a total volume of 30 µL in assay buffer (50 mM Tris-HCl, pH 7.5, 10 mM KCl, 1 mM MgCl2, 0.3 mM MnCl2, 0.001% Triton X-100 and 10 µM cysteine) at 25 °C for 60 min. The 30 µL of 2.5× stop buffer (200 mM NaCl, 25 mM MgCl2, 1.5 M diethanolamine, pH 10) with 25 nM calf intestinal alkaline phosphatase (Promega) was added to the reaction after 60-min incubation. The fluorescence signal was measured at excitation wavelength of 422 nm and emission wavelength of 566 nm, respectively.

DENV-2 [3] = assay: Anti-DENV activity in DENV-infected ICR-suckling mouse model; format: in vivo; conditions: 6-day-old ICR-suckling mice; for Clinical scores and body weight (DENV-induced pathology): 2.5 × 10^5 pfu DENV-2, within 4 to 6 dpi; for Survival rate: DENV-2, compared to untreated mice
Excerpt: Breeder ICR mice were purchased from BioLasco Taiwan Co. Ltd. The experimental protocol was approved by the Animal Research Committee of Kaohsiung Medical University of Taiwan (IACUC, protocol number 102177). All mice received humane care and fed with standard rodent chew and water ad libitum. Mice were kept under a standard laboratory condition following the Animal Use Protocol of Kaohsiung Medical University. The 6-day-old ICR-suckling mice were intracerebrally injected with DENV-2 followed by intracerebrally injecting saline or test compound at 1, 3, 5 days postinfection (dpi). […] The body weight, clinical scores and survival rate were recorded every day. The mice were sacrificed at 6 dpi.
To access the antiviral activity of compound 3 and 4in vivo, 6-day-old ICR-suckling mice were inoculated with 2.5 × 10^5 pfu of DENV-2 by intracerebral injection and then were administered with compound 3 (10 mg/kg) or 4 (1 mg/kg) by intracerebral injection at 1-, 3- and 5-day postinfection (dpi); inoculation of heat-inactivated DENV-2 (iDENV) served as a mock control.

DENV-2 [4] = assay: Anti-DENV RNA activity: RT-qPCR of DENV RNA in DENV-2-infected Huh-7 cells; format: cell-based, DENV-2 (DENV type-2 strain 16681); conditions: for SI (selectivity index, CC50/EC50 ratio): CC50 in Huh-7 / EC50 DENV-2 RNA
Protocol: Huh-7 cells were seeded in 24-well plate and infected DENV at an MOI of 0.2 for 2 h and followed by test compound treatment at concentration of 0, 1, 5, 10, 25, 50 and 100 µM for 3 days. The total cellular RNA was harvested by RNA extraction kit[32] following manufacturer’s instrument. DENV RNA and cellular mRNA levels were determined by quantitative real-time reverse-transcription polymerase chain reaction (RT-qPCR) with specific primers. The DENV RNA level was normalised by cellular glyceraldehydes-3-phosphate dehydrogenase (GAPDH) mRNA level. The relative DENV RNA level was calculated by StepOne™ Software v2.2.2 (Applied Biosystems, Foster City, CA, USA) following normalisation of cellular glyceraldehydes-3-phosphate dehydrogenase (GAPDH) mRNA level. The zero dose was defined as 100%. The EC50 values were calculated from non-linear regression curve fitting using GraphPad Prism7 software (San Diego, CA, USA). Results were obtained from three independent experiments.

DENV-2 NS5 RdRp [5] = molecular target: T1, DENV-2 NS5 RdRp; assay: Enzyme-based RdRp activity assay (FAPA); format: biochemical; set-up: the supernatant containing His-tagged DENV-2 NS5 protein; His; made in house; host or cells: Sf9 insect cells (baculovirus vAc-DENV-NS5); conditions: 100 nM DENV NS5 protein, (−) 3′UTR RNA, BBT-ATP, 25 °C, 60 min
Protocol: The DENV-2 NS5 protein purification was performed as previously described. Briefly, Sf9 cells were infected by the recombinant baculovirus vAc-DENV-NS5 at an MOI of 10 for 3 days. The cells were pelleted by centrifugation at 1000×g for 5 min at 4 °C and washed twice with phosphate-buffered saline (PBS). The cells were suspended in 5 mL of binding buffer (20 mM sodium phosphate, pH 7.5, 300 mM NaCl, 20 mM imidazole) containing protease inhibitor cocktail, and then disrupted by sonication. After centrifugation, the supernatant containing His-tagged DENV-2 NS5 protein was subjected to metal affinity chromatography employing the AKTA prime protein purification system. The eluted DENV-2 NS5 protein was concentrated by an Amicon Ultra-15 30 k centrifugal filter device[36] and then dialysed against PBS overnight at 4 °C.
as §1

DENV-2 NS3 protease = molecular target: T2, DENV-2 NS3 protease (Dengue virus type 2, UniProt P29990); assay: Cell-based DENV protease reporter assay (pEG(MITA)SEAP + pcDNA-NS2B-GSG-NS3-Myc in Huh-7 cells); conditions: 3 days treatment, read-out: Cell-based EC50 ± SD (DENV-2 NS3 protease)
T2 construct: DENV protease expression vector pcDNA-NS2B-GSG-NS3-Myc; expressed in transfected cells; host or cells: Huh-7
Protocol: (§2) For cell-based activity assay, the Huh-7 cells were cotransfected with 0.5 µg of pEG(MITA)SEAP reporter vector and DENV protease expression vector pcDNA-NS2B-GSG-NS3-Myc followed by compound treatment for 3 days. The SEAP activity was analysed by Phospha-Light SEAP Reporter Gene Assay System[40]. The enzyme-based experiment was performed as previously described. Briefly, the 7-amino-4-methylcoumarin (AMC) fluorophore-linked peptide substrate Boc-GRR-AMC[41] and purified DENV NS2B/NS3pro protein were used to analyse DENV NS2B/NS3 protease activity. The 100 nM DENV NS2B/NS3pro protein was incubated with 1, 5 or 10 µM tested compound and 10 µM Boc-GRR-AMC in cleavage buffer (200 mM Tris [pH 9.5], 20% glycerol) for 30 min at 25 °C. The fluorescence signal was detected at excitation wavelength of 380 nm and emission wavelength of 465 nm, respectively.

DENV NS2B/NS3pro protein = molecular target: T3, DENV NS2B/NS3pro protein (Dengue virus type 2, UniProt P29990); assay: Enzyme-based DENV NS2B/NS3 protease assay (Boc-GRR-AMC substrate); format: biochemical; conditions: Enzyme-based EC50 ± SD (DENV-2 NS3 protease), 100 nM NS2B/NS3pro, 10 µM Boc-GRR-AMC, 30 min, 25 °C
T3 construct: made in house; host or cells: Escherichia coli BL21 (DE3)
Protocol: The DENV NS2B/NS3pro purification was performed as previously described. Briefly, the pET24b-NS2B-NS3pro plasmid was transformed into competent Escherichia coli BL21 (DE3) and grew in kanamycin (50 µg/mL)-containing LB at 26 °C until OD600 nm reached 0.6. The isopropyl-β-D-thiogalactopyranose was added into the bacterial culture at 0.5 mM for protein induction. After 12-h incubation, cells were collected and subjected to protein purification following previous description.
as §2

[6] = 10 mg/kg intracerebral injection at 1, 3, 5 dpi
[7] = Dengue virus, DENV2, Huh-7, 72 h, Huh-7 cells infected with DENV-2 at MOI 0.2, 3 days treatment, qRT-PCR with primers targeting NS5, normalised to GAPDH, read-out: EC50 ± SD (DENV-2 RNA)
[8] = Huh-7 cells infected with DENV-2 at MOI 0.2, 3 days treatment, qRT-PCR with primers targeting NS5, normalised to GAPDH, read-out: EC50 ± SD (DENV-2 RNA)
[9] = Dengue virus, DENV2, Huh-7, 72 h, read-out: EC50 ± SD (DENV-2 RNA), Huh-7 cells infected with DENV-2 at MOI 0.2, 3 days treatment, qRT-PCR with primers targeting NS5, normalised to GAPDH
[10] = read-out: EC50 ± SD (DENV-2 RNA), Huh-7 cells infected with DENV-2 at MOI 0.2, 3 days treatment, qRT-PCR with primers targeting NS5, normalised to GAPDH
[11] = 1 mg/kg intracerebral injection at 1, 3, 5 dpi
[12] = Cell-based EC50 ± SD (DENV-2 NS5 RdRp)
[13] = read-out: Enzyme-based EC50 ± SD (DENV-2 NS5 RdRp)

T1 sequence (P29990 2492-3391): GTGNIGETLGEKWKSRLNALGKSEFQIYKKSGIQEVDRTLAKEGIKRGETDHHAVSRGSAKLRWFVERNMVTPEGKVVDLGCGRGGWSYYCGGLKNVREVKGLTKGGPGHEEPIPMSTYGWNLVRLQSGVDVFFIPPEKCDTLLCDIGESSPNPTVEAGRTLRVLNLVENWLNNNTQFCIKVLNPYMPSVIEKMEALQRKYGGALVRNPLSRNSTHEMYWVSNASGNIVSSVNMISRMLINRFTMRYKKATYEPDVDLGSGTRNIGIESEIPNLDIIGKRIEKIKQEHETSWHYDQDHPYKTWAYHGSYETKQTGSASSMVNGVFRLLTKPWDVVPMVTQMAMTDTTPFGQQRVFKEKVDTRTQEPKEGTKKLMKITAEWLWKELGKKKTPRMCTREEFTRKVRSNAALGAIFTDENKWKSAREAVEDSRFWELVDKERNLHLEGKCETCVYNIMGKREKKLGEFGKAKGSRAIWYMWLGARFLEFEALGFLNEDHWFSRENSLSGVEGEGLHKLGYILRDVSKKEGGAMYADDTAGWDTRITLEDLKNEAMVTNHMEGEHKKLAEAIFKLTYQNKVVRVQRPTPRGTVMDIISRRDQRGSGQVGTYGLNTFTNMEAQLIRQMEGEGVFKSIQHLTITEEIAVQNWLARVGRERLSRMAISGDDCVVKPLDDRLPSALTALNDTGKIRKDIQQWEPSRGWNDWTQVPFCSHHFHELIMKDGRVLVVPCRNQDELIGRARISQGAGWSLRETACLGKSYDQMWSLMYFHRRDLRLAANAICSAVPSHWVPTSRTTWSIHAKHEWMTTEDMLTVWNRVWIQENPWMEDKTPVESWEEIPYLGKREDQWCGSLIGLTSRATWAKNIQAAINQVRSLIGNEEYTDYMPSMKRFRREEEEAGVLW
T2 sequence (P29990 1476-2093): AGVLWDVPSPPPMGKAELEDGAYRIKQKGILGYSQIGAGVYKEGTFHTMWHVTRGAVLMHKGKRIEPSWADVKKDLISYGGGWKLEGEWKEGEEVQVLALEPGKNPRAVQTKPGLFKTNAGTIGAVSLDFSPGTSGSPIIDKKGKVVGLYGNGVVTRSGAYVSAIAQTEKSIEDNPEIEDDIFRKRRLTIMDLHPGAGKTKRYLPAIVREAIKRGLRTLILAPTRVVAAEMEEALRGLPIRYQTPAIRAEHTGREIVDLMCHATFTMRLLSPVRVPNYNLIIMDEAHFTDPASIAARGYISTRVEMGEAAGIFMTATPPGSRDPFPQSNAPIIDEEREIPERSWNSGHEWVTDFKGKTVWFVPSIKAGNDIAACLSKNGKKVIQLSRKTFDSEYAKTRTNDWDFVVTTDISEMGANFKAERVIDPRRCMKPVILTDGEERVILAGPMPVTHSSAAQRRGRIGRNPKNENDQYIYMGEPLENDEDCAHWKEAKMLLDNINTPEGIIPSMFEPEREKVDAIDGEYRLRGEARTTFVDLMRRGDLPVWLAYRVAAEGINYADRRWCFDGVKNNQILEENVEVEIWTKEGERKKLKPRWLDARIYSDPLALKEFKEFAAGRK
T3 sequence (P29990 1346-1475): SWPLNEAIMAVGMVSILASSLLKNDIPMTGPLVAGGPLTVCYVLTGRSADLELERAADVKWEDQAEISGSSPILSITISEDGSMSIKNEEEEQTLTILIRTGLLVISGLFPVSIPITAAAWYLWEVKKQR
T3 sequence (P29990 1476-1653): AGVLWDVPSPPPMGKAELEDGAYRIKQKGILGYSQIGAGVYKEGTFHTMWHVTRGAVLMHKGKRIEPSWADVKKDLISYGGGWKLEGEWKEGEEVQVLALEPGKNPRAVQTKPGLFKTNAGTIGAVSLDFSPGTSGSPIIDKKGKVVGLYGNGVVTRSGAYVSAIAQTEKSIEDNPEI

| Compound | CC50 at 3 days [1] | EC50 (DENV-2 NS5 RdRp [2]; read-out: Cell-based EC50 ± SD (DENV-2 NS5 RdRp)) | Clinical scores and body weight (DENV-induced pathology) (DENV-2 [3]; [6]) | Survival rate (DENV-2 [3]; [6]) | SI (selectivity index, CC50/EC50 ratio) (DENV-2 [4]) | EC50 (DENV-2 [4]; [7]) | EC50 (DENV-2 [4]; [8]) | EC50 (DENV-2 NS5 RdRp [5]; Enzyme-based EC50 ± SD (DENV-2 NS5 RdRp)) | EC50 (DENV-2 NS3 protease) | EC50 (DENV-2 [4]; [9]) | EC50 (DENV-2 [4]; [10]) | EC50 (DENV NS2B/NS3pro protein) | Clinical scores and body weight (DENV-induced pathology) (DENV-2 [3]; [11]) | Survival rate (DENV-2 [3]; [11]) | EC50 (DENV-2 NS5 RdRp [2]; [12]) | EC50 (DENV-2 NS5 RdRp [5]; [13]) |
| --- | --- | --- | --- | --- | --- | --- | --- | --- | --- | --- | --- | --- | --- | --- | --- | --- |
| CCOC(=O)c1cnn(-c2ccccc2)c1N(S(=O)(=O)c1ccc([N+](=O)[O-])cc1)S(=O)(=O)c1ccc([N+](=O)[O-])cc1 [Compound 3, Ethyl 5–(4-nitro-N-((4-nitrophenyl)sulphonyl)phenylsulphonamido)-1-phenyl-1H-pyrazole-4-carboxylate] | > 200 µM | 5.99 µM and 6 µM | reduced DENV-induced pathology | significantly protected the mice | >35.1 | 5.66 ± 0.25 µM | 5.7 ± 0.3 µM | 4.87 µM and 4.9 µM |  |  |  |  |  |  |  |  |
| COC(=O)c1[nH]c2ccc(Cl)cc2c1Cc1cc(OC)cc(OC)c1 [Compound 5, Methyl 5-chloro-3–(3,5-dimethoxybenzyl)-1H-indole-2-carboxylate] | > 200 µM |  |  |  | > 27.4 |  |  |  | 7.92 µM and 7.9 µM | 7.28 ± 0.13 µM | 7.3 ± 0.3 µM |  |  |  |  |  |
| COC(=O)c1[nH]c2ccc(Cl)cc2c1C(=O)c1cc(OC)c(O)c(OC)c1 [Compound 4, Methyl 5-chloro-3–(4-hydroxy-3,5-dimethoxybenzoyl)-1H-indole-2-carboxylate] | 181 µM |  |  |  | 39.3 |  |  |  | 6.71 µM and 6.7 µM | 4.6 ± 0.3 µM |  | 4.72 µM and 4.7 µM | reduced DENV-induced pathology | significantly protected the mice |  |  |
| CCOC(=O)c1cnn(C)c1NS(=O)(=O)c1ccc(-n2cccc2C(=O)c2ccccc2)cc1 [Compound 2, Ethyl 5–(4-(2-benzoyl-1H-pyrrol-1-yl)phenylsulphonamido)-1-methyl-1H-pyrazole-4-carboxylate] | > 200 µM |  |  |  | >26.3 | 7.61 ± 0.36 µM | 7.6 ± 0.4 µM |  |  |  |  |  |  |  | 7.22 µM and 7.2 µM | 5.34 µM and 5.3 µM |
| CCOC(=O)c1cnn(C)c1N(S(=O)(=O)c1ccc(Cl)cc1)S(=O)(=O)c1ccc(Cl)cc1 [Compound 1, Ethyl 5–(4-chloro-N-((4-chlorophenyl)sulphonyl)phenylsulphonamido)-1-methyl-1H-pyrazole-4-carboxylate] | 196 µM |  |  |  | 17.7 | 11.1 ± 0.21 µM |  |  |  |  | 11.7 ± 0.2 µM |  |  |  | 8.07 µM and 8.1 µM | 7.78 µM and 7.8 µM |
